Publication PMC4859609, “Inhibition and Larvicidal Activity of Phenylpropanoids from Piper sarmentosum on Acetylcholinesterase against Mosquito Vectors and Their Binding Mode of Interaction” (PLoS ONE, 2016)

Tests used:
Ae. albopictus eggs = experiment: Ovicidal activity (egg hatching); conditions: for mortality at 25 µg/mL: read-out: ovicidal activity (% of egg mortality), 25 μg/mL
Ae. aegypti eggs = experiment: Ovicidal activity (egg hatching); conditions: for mortality at 25 µg/mL: read-out: ovicidal activity (% of egg mortality), 25 μg/mL
[1] = system: blood-starved female Ae. albopictus; experiment: Repellent activity (WHO procedure, treated forearm in cage); assay type: in vivo, Aedes albopictus; conditions: for % repellency: 300 μg/mL
Protocol: (§1) This study was carried out according to the method described by WHO standard procedure. Three-day-old blood-starved female of Ae.aegypti, Ae. albopictus and Cx. quinquefasciatus (100 each) were kept in a net cage (23 cm × 23 cm × 23 cm). Hands that had no contact with lotions, perfumes or perfumed soaps were exposed to the mosquito cage. Only 25 cm^2 dorsal side of the skin on each arm was exposed and the remaining area covered by rubber gloves. The tested substance was applied at several dosages, separately in the exposed area of the forearm. Acetone was served as control. The timing of the test depended on whether the tested mosquitoes were day or night biters. Ae.aegypti and Ae. albopictus were tested from 6 am to 9 am hours, while Cx. quinquefasciatus was tested from […] to 7 pm hours. Both control and treated arms were introduced simultaneously into the mosquito cage, and followed by gentle tapping on the sides of the experimental cages to activate the mosquitoes. Each test concentration was repeated four times. The volunteers conducted test for each concentration by inserting the treated and control arms into the same cage for one minute and repeated this action every five minutes. The mosquitoes that landed on the hand were recorded and then shaken off before imbibing any blood. The percentage of repellency was calculated by the following formula, %Repellency=[Ta−Tb/Ta]×100%,where
(§2) Ta: the number of mosquitoes in the control group.
(§3) Tb: the number of mosquitoes in the treated group.

[2] = target: AChE extracted from Cx. quinquefasciatus larvae (Culex quinquefasciatus, UniProt Q867X2); experiment: Acetylcholinesterase inhibition assay (in vitro, modified Ellman); assay type: biochemical
Protocol: (§4) For this experiments, the larvae were removed and homogenized at 0°C (keeping the homogenized mixture in plastic tube covered with ice) in 0.05 M-phosphate buffer, pH7.5 (KH2PO4-NaOH) (Merck, USA) by using a glass homogenizer with a polytetrafluoroethylene (PTFE) pestle (5%, w/v, homogenate). The homogenates were centrifuged for 20 min at 5°C and 16000 rpm. These supernatants were collected with pipette and kept inside the ice for studying the AChE inhibition biochemical assay.
(§5) To determine the IC50 values, procedures from Ellman et al., 1961 were modified and applied. Electronic multichannel pipette (Eppendorf, USA) was used to transfer exact 10 μL of enzyme solution to each well of a 96-well microtiter plate further mixed with 20 μL of tested compounds in solution form and 150 μL of cold phosphate buffer which were kept in refrigerator 1–4°C. The assay microtiter plates were incubated at 25°C for 10 min. Inhibitors were dissolved in DMSO (Merck, USA) in several concentration and stocks diluted to give a final concentration of 0.1% DMSO (v/v) were added into test well in separated rows. This was followed by adding 20 μL of acetylthiocholine iodide (ACTHI) (Sigma-Aldrich, USA) (0.4 mM) and DTNB (Sigma-Aldrich, USA) (0.3 mM) to enzyme solution to observe the reaction. Yellowish or colorless solution was observed during reaction for 30 minutes at room temperature. Changes in absorbance were recorded by a microplate readers (Synergy H1 Hybrid Multi-Mode Microplate Reader, USA) at 412 nm. Enzyme concentrations used were within the linear range of their toxicity activity.
(§6) %Inhibition=[Acon−Asam/Acon]×100%,where
(§7) Acon: the absorbance of the control
(§8) Asam: the absorbance of the test sample.
(§9) The IC50 was calculated by log-probit analysis using Polo Plus program. Another set of supernatant was loaded with 20 μL of ACTHI and DTNB solution only which served as control. The mean IC50 significant values were statistically determined by comparison of confident interval.

[3] = target: AChE extracted from Ae. aegypti larvae (Aedes aegypti, UniProt A4GND7); experiment: as above; assay type: biochemical
Protocol: as §4, §5, §6, §7, §8, §9

[4] = target: AChE extracted from Ae. albopictus larvae (Aedes albopictus, UniProt Q2PGF2); experiment: as above; assay type: biochemical
Protocol: as §4, §5, §6, §7, §8, §9

[5] = system: blood-starved female Ae. aegypti; experiment: Repellent activity (WHO procedure, treated forearm in cage); assay type: in vivo, Aedes aegypti; conditions: for % repellency: 300 μg/mL
Protocol: as §1, §2, §3

[6] = system: Culex quinquefasciatus larvae; experiment: Larval bioassay (WHO larvicidal procedure), late 3rd or early 4th larvae; conditions: for mortality at 9.3 µg/mL: Culex quinquefasciatus, 24 h, read-out: % larvae mortality; for dosage that can cause 50% mortality: larvae; for dosage that can cause 50% mortality / % larvae mortality: 24 hours; for % larvae mortality: ≤ 15 μg/mL
Protocol: (§10) All tested insects used for the experiments were obtained from colonies cultured in the laboratory at 27 ± 2°C and 65 ± 5% relative humidity. To determine the susceptibility, three species of adult mosquitoes and larvae of Ae. aegypti, Ae. albopictus and Cx. quinquefasciatus were used as sample and were measured over a period of 1 year (2012–2013) in this study. Each different species was categorized and reared in laboratory as laboratory strains. Ae. aegypti, Ae. albopictus and Cx. quinquefasciatus were collected from cemetery near the Malaysia International Airport KLI, 2011. Mosquito larvae were placed in plastic containers located in cages (23cm x 23cm x 23cm) at laboratory condition with a photoperiod of 13 hours of daylight and 11 hours of darkness for emergence.
(§11) The larval bioassay was performed on late 3rd or early 4th larvae of Ae. aegypti, Ae. albopictus and Cx. quinquefasciatus according to the WHO larvicidal activity standard procedure. 15 mg of asaricin 1, isoasarone 2 and trans-asarone 3 were separately dissolved in 1 mL of acetone as stock solution and several concentrations (4 to 20 μg/mL) were prepared through serial dilution by mixing specific amount of stock solution with 250mL distilled water. Twenty five larvae of Ae. aegypti, Ae. albopictus and Cx. quinquefasciatus were separately introduced into the plastic cups containing appropriate concentrations of asaricin 1, isoasarone 2 and trans-asarone 3. Control was only treated with 1 mL acetone added to 250mL distilled water. Mortality of the tested larvae was recorded at the end of 24 hours. Each treatment was replicated four times.
(§12) %larvae mortality=Number of dead larvae/Total number of introduced larvae×100%

Aedes albopictus larvae = experiment: as above; conditions: 24 hours; for dosage that can cause 50% mortality: larvae
Protocol: as §10, §11, §12

Aedes aegypti larvae = experiment: as above; conditions: 24 hours; for dosage that can cause 50% mortality: larvae
Protocol: as §10, §11, §12

[7] = system: Cx. quinquefasciatus eggs; experiment: Ovicidal activity (egg hatching); conditions: for mortality at 25 µg/mL: read-out: ovicidal activity (% of egg mortality), 25 μg/mL
[8] = system: blood-starved female Cx. quinquefasciatus; experiment: Repellent activity (WHO procedure, treated forearm in cage); assay type: in vivo, Culex quinquefasciatus
Protocol: as §1, §2, §3

[9] = system: AChE extracted from Cx. quinquefasciatus larvae; experiment: Acetylcholinesterase inhibition assay (in vitro, modified Ellman); assay type: biochemical; conditions: Culex quinquefasciatus; 95% confidence interval in brackets; log-probit
Protocol: as §4, §5, §6, §7, §8, §9

[10] = Aedes albopictus, 48 h, 48 hours
[11] = Culex quinquefasciatus, 48 h, 48 hours
[12] = even at higher dosage of 100 μg/mL

AChE extracted from Ae. albopictus larvae, sequence (Q2PGF2 37-680): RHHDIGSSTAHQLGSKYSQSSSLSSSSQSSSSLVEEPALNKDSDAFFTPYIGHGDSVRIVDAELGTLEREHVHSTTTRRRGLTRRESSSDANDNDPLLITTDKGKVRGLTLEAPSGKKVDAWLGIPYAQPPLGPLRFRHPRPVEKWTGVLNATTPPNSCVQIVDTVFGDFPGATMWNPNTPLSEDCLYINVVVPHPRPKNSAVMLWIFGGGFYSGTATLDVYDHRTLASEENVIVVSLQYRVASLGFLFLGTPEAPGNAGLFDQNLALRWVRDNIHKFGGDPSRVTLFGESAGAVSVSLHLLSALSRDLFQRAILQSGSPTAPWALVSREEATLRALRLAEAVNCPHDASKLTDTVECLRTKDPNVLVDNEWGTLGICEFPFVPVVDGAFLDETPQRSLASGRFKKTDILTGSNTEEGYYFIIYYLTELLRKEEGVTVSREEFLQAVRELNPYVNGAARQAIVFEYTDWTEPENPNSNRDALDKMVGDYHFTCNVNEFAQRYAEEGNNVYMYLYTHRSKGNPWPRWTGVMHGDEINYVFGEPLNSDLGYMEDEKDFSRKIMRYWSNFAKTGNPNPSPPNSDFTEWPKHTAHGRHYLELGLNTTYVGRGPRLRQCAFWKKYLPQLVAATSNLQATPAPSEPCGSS
AChE extracted from Ae. aegypti larvae, sequence (A4GND7 37-679): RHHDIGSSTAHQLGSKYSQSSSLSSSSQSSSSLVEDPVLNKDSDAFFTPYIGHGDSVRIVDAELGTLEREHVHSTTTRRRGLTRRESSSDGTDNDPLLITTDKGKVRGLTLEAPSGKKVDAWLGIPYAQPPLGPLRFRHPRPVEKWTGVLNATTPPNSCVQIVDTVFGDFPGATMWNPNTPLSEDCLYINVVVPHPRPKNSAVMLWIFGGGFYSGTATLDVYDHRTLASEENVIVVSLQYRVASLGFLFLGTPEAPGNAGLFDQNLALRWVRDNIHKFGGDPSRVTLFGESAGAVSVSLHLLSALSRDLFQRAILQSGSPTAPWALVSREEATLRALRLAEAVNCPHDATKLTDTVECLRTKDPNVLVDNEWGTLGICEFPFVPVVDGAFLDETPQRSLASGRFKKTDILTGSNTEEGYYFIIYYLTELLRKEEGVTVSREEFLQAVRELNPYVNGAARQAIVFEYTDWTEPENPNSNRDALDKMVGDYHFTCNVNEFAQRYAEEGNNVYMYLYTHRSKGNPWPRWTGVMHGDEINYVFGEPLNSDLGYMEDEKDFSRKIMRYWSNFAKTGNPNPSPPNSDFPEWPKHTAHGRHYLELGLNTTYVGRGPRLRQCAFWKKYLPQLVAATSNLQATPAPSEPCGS
AChE extracted from Cx. quinquefasciatus larvae (Culex quinquefasciatus, UniProt Q867X2), sequence (Q867X2 whole entry): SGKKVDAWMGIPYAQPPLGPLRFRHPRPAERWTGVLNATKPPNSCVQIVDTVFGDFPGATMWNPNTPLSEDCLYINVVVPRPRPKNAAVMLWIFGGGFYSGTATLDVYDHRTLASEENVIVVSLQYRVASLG

Compound | mortality at 25 µg/mL (Ae. albopictus eggs; [10]) [%] | mortality at 25 µg/mL (Ae. aegypti eggs; Aedes aegypti, 48 h, 48 hours) [%] | % repellency [1] | repellent activity (in words) ([1]; 50 to 150 μg/mL) | Slope ± S.E of log-probit AChE inhibition curve [2] | Slope ± S.E of log-probit AChE inhibition curve [3] | Slope ± S.E of log-probit AChE inhibition curve [4] | % repellency [5] | repellent activity (in words) ([5]; 50 to 150 μg/mL) | mortality at 9.3 µg/mL [6] [%] | dosage that can cause 50% mortality [6] [µg/mL] | dosage that can cause 50% mortality (Aedes albopictus larvae) [µg/mL] | % larvae mortality (Aedes albopictus larvae; ≤ 9.3 μg/mL) | dosage that can cause 50% mortality (Aedes aegypti larvae) [µg/mL] | mortality at 25 µg/mL [7, 11] [%] | repellent activity (in words) ([8]; 50 to 150 μg/mL) | further results
C=CCc1cc2c(cc1OC)OCO2 [Asaricin 1, asaricin] | ≤ 95 | ≤ 95 | below 65% | very weak | 2.50±0.14 | 2.07±0.13 | 2.25±0.14 | below 65% | very weak | ≤ 80 | ≤ 7 | ≤ 7 | ≤ 90% | ≤ 7 | ≤ 95 | very weak | % larvae mortality [6]: up to 100%; % larvae mortality ([6]; listed as asaricin 1): 100%; % larvae mortality (Aedes albopictus larvae; ≤ 15 μg/mL): up to 100%; % larvae mortality (Aedes albopictus larvae; ≤ 15 μg/mL, listed as asaricin 1): 100%; % repellency ([8]; 300 μg/mL): below 65%
C=CCc1cc(OC)c(OC)cc1OC [Isoasarone 2, isoasarone] | ≤ 95 | ≤ 95 | below 55% | very weak | 2.29±0.13 | 2.41±0.15 | 2.57±0.14 | below 55% | very weak | ≤ 80 | ≤ 7 | ≤ 7 | ≤ 90% | ≤ 7 | ≤ 95 | very weak | mortality at 20 µg/mL (Ae. albopictus eggs; Aedes albopictus, 48 h, read-out: ovicidal activity (% of egg mortality), 20 μg/mL, 48 hours): 80 to 90%; mortality at 20 µg/mL (Ae. aegypti eggs; Aedes aegypti, 48 h, read-out: ovicidal activity (% of egg mortality), 20 μg/mL, 48 hours): 80 to 90%; mortality at 20 µg/mL ([7]; Culex quinquefasciatus, 48 h, read-out: ovicidal activity (% of egg mortality), 20 μg/mL, 48 hours): 80 to 90%
C/C=C/c1cc(OC)c(OC)cc1OC [Trans-asarone 3, trans-asarone] |  |  |  |  | 2.46±0.13 | 3.63±0.14 | 2.00±0.16 |  |  | 5 to 20 |  |  | 5–20% |  |  |  | effect on egg hatchability (Ae. albopictus eggs; [12]): no effect; effect on egg hatchability (Ae. aegypti eggs; [12]): no effect; repellent activity (in words) ([1]; in vivo): not significant; AChE enzyme inhibition IC50 [9]: 17.4(12.6 to 24.4) μg/mL; repellent activity (in words) ([5]; in vivo): not significant; % larvae mortality (Aedes aegypti larvae; ≤ 9.3 μg/mL): 5–20%; effect on egg hatchability [7, 12]: no effect; repellent activity (in words) ([8]; in vivo): not significant
